Key:
[1] = tested on: MAE-p47−/− cells; assay: Monocyte adhesion to p47phox-null endothelial cells, with or without p47phox transfection; assay type: cell-based, mouse; settings: 18 hrs
Method: Endothelial cells: Mouse aortic endothelial cells (MAEC) were cultured and used at passages 4-8 as described (Cai, H., et al. (2002) J Bio Chem 107, 48311-48317). Human aortic endothelial cells (HAEC) purchased from Clonetics were cultured using EGM-2 bullet kit (Clonetics) and used at passages 4-8. Alternatively, endothelial cells obtained from the thoracic aortas of C57/BL6 control (MAE-wt) and p47^phox-null mice (MAE-p47^−/−) were isolated and cultured as described previously (Hwang, J. et al. (2003) J Biol Chem 278:47291-8), and used between passages 4-10.
Monocyte Adhesion: Monocyte binding was determined under no-flow conditions using THP-1 monocytes (ATCC) by the method described by Chappel et al (Chappell, D. C., et al. (1998) Circ Res 82, 532-539). Briefly, THP-1 cells (5×10^5 cells/ml) were labeled with a fluorescent dye 2′,7′-bis(carboxyethyl)-5(6)-carboxyfluorescein-AM (BCECF, Molecular Probes) (1 mg/ml) in serum-free RPMI medium for 45 min at 37° C. Following exposure to shear stress or BMP treatments in the presence or absence of noggin or vehicle, the endothelial cells were washed in RPMI medium before adding BCECF-loaded THP-1 cells (1:1 ratio). After a 30 min incubation at 37° C. under no-flow conditions, unbound monocytes were removed by washing the endothelial dishes 5 times with Hank's PBS. Bound monocytes were quantified by either counting the cells under a fluorescent microscope or by measuring the fluorescent intensity of cell lysates by fluorescence spectrophotometry using a plate reader. […] Some studies were performed with MAEC pretreated with 5 μg/ml of mouse-ICAM1 antibody (YN1, Southern Biolechonology) (Kevil, C. G., et al. (2001) Am J Physiol Cell Physiol 281, C1442-1447).
Transfection of p47phox: In some studies MAE-p47^−/− cells were trasnfected withp47phox expression vector or an empty vector as described (Hwang, J. et al. (2003) J Biol Chem278-47291-8).
Next, monocyte adhesion was determined in these cells. […] After 18 hrs, cells were washed and monocyte binding was determined as described in FIG. 7. […]

[2] = tested on: E-selectin; assay: E-selectin surface expression by FACS analysis in HAEC; assay type: cell-based, human; settings: TNF-α 100 U/ml for 2 hr as positive control
Method: Fluorescence activated cytometry sorting (FACS) analysis: Treated cells were dissociated into single cell suspensions using 0.25% trypsin-EDTA and resuspended in a FACS buffer (Hank's buffered solution containing 5% FBS). Aliquots of cell suspensions were incubated with ICAM-1 antibody (R&D Systems) for 20 min on ice, washed twice with FACS buffer, and incubated with secondary antibody (fluorescein-5-isothiocyanate- or phycoerytherin-conjugated, Chemicon) for 20 min on ice in the dark. Then samples were washed again, fixed in 1% paraformaldehyde and analyzed by FACS (Calibur, Becton-Dickinson) using CellQuest software. The fluorescence intensity of ICAM-1 and forward cell scattering of 30,000 cells were measured and the geometric means calculated from histograms were shown. […] In these experiments, ICAM-1 expression was measured in the red phycoerytherin channel, while the green channel was used to monitor the […] expression-GFP expression was determined by FACS analysis and fluorescence microscopy (20-30% transfection efficiency). […]
HAEC treated with OS, BMP4 or static condition were analyzed by FACS using antibodies specific to VCAM-1 (C) and E-selectin (D) as described in panel A using TNFa (1OOU/ml, for 2 hr) as a positive control.

[3] = tested on: MAE-wt cells; assay: O2− assay by electron spin resonance spectroscopy with CMH spin probe; assay type: cell-based, mouse; settings: MAE-wt cells, BMP4 200 ng/ml for 18 hrs, SOD-inhibitable CM signal
Method: O2^− Assay: O2^− production was determined by electron spin resonance spectroscopy using methoxycarbonyl-2,2,5,5-tetramethyl-pyrrolidine (CMH) as a spin probe in the presence or absence of PEG-superoxide dismutase (PEG-SOD; 50 U/ml) to quantify the SOD-inhibitable portions of CM.
In FIG. 10A immediately following treatment of MAE wt cells with BMP4 (200 ng/ml) for 18 hrs, cells were trypsinized and reconstituted in Krebs-Hepes buffer. Equal number of cells was incubated with a spin trap CMH in the presence or absence of PEG-SOD (50 U/mL). The specific O2^− production was calculated by subtracting SOD-inhibitable portions from total O2^− production as determined by following CM production (mean±SEM, n=3, *p<0.05).

[4] = tested on: MAE-wt cells; assay: H2O2 assay by oxidation of DCF-DA; assay type: cell-based, mouse; settings: BMP4 18 hrs
Method: H2O2 assay: Cells grown in 6-well plates were treated with BMP4 or vehicle control for 18 hrs in the presence or absence of cell-permeable polyethylene glycol (PEG)-catalase (100 U/ml). Cells were then washed once with Hepes buffered saline solution (HBSS) followed by incubation with 7.5 μg/ml 2′, 7′-dichlorofluorescein diacetate (DCF-DA, Molecular Probes) in HBSS for 1 hr at 37 C° in the dark. Cells were washed with HBSS, incubated further for an additional 40 min in HBSS, and the DCF fluorescence intensities were measured in a Cytofluor Multi-Well plate reader (excitation at 475 nm and emission at 525 nm).
In addition, BMP4 stimulated production of H2O2 by 70% above control as determined by oxidation of DCF-DA (FIG. 10B). […] The cells were washed, incubated with DCF-DA, and the fluorescent intensities determined by fluorometry. Shown is a mean±SEM (n=3, p<0.05). In this assay, a redox cycling menadione (10 μM) was used as positive control (data not shown).

Substance: BMP4
- increase in monocyte adhesion above the control ([1]; MAE-p47−/− cells transfected with p47phox (rescued), BMP4 20 ng/ml or TNF-α 100 U/ml): 4- to 5 fold
- monocyte adhesion response ([1]; MAE-p47−/− cells, BMP4 20 ng/ml): failed to stimulate monocyte adhesion
- effect on surface expression of E-selectin [2]: neither OS nor BMP4 had any effect
- O2− production above control [3]: 2.9 fold
- production of H2O2 above control [4]: 70%
